Data as given in ChEMBL document CHEMBL1201862, “PubChem BioAssay data set” (2004).
Calls of active or inactive are those of the source.

Key:
[1] = test system: Jurkat; experiment: antigen receptor-induced NF-kB inhibitors, dose response, Jurkat, luciferase reporter, luminescence, B- and T-cell (AID 489004); type: functional, cell-based; conditions: Homo sapiens;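 also: NF-kB luciferase reporter Jurkat cells stimulated with PMA plus ionomycin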
[2] = cytotoxicity in HEK-293T NF-kB-Luc cells, dose response, cytotoxicity control for B/T-cell NF-kB inhibitor project, cell-based, uHTS hits (AID 489019); type: functional;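 also: IC50 reflects cytotoxicity as loss of cell viability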
[3] = test system: INS1; experiment: beta cell apoptosis inhibitors, cytokine rescue, dose response, luminescence, retest (AID 449756); type: functional, cell-based; conditions: Rattus norvegicus;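 also: cell death triggered by IL-1 beta plus TNF-alpha plus IFN-gamma mixture; protective hits raise ATP signal compared with cytokine alone wells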
[4] = Shn3 3'UTR reporter inhibitors, dose response, cell-based, Clone20 osteoblasts, firefly luciferase, cherry-picked (AID 624132); type: functional;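 also: firefly luciferase luminescence from reporter carrying the Shn3 3'UTR in osteoblasts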
[5] = control 3'UTR Renilla luciferase suppression, dose response, counter-screen for Shn3 inhibitor project, cell-based, Clone20-Shn3RL, cherry-picked (AID 624133); type: functional
[6] = target: Galanin receptor type 3 (Homo sapiens, UniProt O60755); experiment: Fluorescence-based cell-based primary high throughput dose response assay to identify antagonists of the Galanin Receptor 3 (GalR3).; type: functional
Chain of Galanin receptor type 3 (O60755 whole entry): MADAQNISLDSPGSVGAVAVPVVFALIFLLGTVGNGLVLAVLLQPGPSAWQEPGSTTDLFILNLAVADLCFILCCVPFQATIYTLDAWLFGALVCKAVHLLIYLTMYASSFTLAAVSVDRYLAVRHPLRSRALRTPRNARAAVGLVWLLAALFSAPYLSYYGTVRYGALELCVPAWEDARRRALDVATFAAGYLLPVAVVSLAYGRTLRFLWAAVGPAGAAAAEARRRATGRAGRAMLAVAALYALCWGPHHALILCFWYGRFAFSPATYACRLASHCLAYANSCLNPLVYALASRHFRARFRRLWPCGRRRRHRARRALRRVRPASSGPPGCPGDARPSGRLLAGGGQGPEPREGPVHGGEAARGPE

[7] = cells; type: functional, cell-based; conditions: HEK-CNG
[8] = target: T1, COUP transcription factor 2 (Homo sapiens, UniProt P24468); experiment: Luminescence-based cell-based high throughput dose response assay to identify inhibitors of COUP-TFII (NR2F2).; type: functional;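 also: HEK293 cells transiently cotransfected with COUP-TFII expression vector and reporter; luciferase reporter luminescence driven by COUP-TFII from the pX2-168 reporter plasmid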
T1 sequence (P24468 whole entry): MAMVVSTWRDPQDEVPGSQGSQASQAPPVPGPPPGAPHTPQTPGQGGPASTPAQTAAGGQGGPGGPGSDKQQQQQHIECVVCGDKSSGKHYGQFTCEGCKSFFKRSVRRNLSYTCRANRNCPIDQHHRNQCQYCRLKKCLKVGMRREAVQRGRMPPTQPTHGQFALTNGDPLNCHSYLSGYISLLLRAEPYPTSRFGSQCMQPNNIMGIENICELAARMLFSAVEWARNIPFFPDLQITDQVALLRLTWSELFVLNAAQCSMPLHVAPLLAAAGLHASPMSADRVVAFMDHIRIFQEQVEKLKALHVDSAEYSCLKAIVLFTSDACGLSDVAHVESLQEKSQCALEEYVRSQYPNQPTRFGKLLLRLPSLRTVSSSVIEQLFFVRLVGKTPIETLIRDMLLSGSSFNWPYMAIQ

[9] = NIH-3T3 fibroblast cytotoxicity, dose response, cytotoxicity control, cell-based, fluorescence, Alamar Blue, secondary assay (AID 2327); type: functional;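 also: NIH-3T3 mouse fibroblasts cultured with fluconazole at 8 µg/mL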
[10] = target: Galanin receptor type 2 (Homo sapiens, UniProt O43603); experiment: Dose Response cell-based high-throughput screening assay to identify antagonists of galanin receptor 2 (GALR2). [Related pubchem assays: 828, 866 ]; type: functional
Chain of Galanin receptor type 2 (O43603 whole entry): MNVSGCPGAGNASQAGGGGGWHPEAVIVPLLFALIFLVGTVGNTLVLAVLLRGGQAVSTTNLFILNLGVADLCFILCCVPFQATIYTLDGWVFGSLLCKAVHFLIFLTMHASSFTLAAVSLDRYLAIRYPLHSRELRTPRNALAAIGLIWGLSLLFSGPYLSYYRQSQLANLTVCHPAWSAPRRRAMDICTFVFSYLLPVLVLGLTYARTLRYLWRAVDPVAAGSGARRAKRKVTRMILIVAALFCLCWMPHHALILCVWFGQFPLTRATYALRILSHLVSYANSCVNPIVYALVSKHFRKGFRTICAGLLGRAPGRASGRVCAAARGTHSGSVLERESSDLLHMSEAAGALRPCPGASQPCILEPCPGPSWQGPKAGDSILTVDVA

[11] = C. albicans growth with fluconazole, confirmation, fluorescence, retest (AID 2467); type: functional, cell-based
[12] = THP-1 cell cytotoxicity, dose response, cytotoxicity control for non-replicating M. tuberculosis project (AID 489025); type: functional
[13] = target: Beta-galactosidase (Escherichia coli, UniProt Q8VNN2); experiment: beta-galactosidase enzyme inhibitors and activators, dose response, artefact control for CCR6 antagonist project, biochemical, E. coli enzyme, set 3 (AID 504712); type: functional
Chain of Beta-galactosidase (Q8VNN2 whole entry): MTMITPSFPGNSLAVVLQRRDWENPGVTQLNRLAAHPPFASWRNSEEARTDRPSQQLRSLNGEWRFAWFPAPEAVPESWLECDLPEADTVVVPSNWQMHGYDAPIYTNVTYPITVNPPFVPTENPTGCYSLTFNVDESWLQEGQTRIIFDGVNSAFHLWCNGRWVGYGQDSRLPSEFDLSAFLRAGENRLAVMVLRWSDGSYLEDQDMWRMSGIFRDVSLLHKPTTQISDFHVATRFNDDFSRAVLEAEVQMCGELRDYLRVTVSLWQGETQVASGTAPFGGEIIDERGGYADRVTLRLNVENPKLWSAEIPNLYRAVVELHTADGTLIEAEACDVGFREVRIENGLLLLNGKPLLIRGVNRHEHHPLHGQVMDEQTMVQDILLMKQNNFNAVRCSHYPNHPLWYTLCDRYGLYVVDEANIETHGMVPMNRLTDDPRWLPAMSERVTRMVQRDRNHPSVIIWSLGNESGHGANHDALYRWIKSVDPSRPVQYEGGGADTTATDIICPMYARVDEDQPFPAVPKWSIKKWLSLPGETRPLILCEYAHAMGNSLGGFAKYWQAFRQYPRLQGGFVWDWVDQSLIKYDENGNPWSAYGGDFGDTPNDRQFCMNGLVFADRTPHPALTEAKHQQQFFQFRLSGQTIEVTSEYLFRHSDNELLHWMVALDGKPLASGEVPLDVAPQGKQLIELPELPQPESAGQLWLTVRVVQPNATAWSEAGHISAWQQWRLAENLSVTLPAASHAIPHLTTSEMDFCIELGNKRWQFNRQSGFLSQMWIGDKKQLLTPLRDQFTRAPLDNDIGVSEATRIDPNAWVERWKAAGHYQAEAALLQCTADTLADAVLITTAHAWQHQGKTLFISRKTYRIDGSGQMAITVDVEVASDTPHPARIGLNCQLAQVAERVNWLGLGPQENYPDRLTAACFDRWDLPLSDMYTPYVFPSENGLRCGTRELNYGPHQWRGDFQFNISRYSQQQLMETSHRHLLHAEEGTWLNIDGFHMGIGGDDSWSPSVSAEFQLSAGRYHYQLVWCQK

[14] = target: T2, Microphthalmia-associated transcription factor (Homo sapiens, UniProt O75030); experiment: TRPM1 promoter luciferase signal decrease, dose response, MITF inhibitor project, cell-based, SK-MEL-5, cherry-picked, set 3 (AID 493073); type: functional
T2 sequence (O75030 whole entry): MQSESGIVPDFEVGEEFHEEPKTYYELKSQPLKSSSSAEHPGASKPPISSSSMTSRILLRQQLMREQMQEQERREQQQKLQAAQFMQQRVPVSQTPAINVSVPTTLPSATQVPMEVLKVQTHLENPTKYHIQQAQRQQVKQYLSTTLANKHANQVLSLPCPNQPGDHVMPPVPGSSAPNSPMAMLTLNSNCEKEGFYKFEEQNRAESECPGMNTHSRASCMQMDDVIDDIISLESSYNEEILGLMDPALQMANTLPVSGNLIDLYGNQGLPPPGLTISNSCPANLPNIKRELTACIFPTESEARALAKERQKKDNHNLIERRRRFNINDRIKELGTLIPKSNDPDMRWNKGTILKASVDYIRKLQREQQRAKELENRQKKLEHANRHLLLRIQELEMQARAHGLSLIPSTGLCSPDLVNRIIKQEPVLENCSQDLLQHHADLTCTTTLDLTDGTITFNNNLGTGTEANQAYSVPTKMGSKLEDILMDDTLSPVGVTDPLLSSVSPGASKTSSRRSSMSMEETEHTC

[15] = cells; type: functional
[16] = target: Heat shock protein HSP 90-alpha (Homo sapiens, UniProt P07900); type: functional, organism-based
[17] = test system: A-375; experiment: MITF: Counter assay: A375 proliferation Measured in Cell-Based System Using Plate Reader - 2084-03_Inhibitor_Dose_DryPowder_Activity. [Related pubchem assays (depositor defined):AID488944]; type: functional; conditions: Homo sapiens
[18] = test system: A-375; experiment: A375 melanoma cell viability reduction, dose response, counter-screen for MITF modulator project, cherry-pick samples, set 2 (AID 540335); type: functional, cell-based; conditions: Homo sapiens
[19] = target: NS3 (Hepatitis C virus, UniProt A3EZJ3); experiment: PubChem AID 2173; set-up: species or system Hepacivirus hominis
Chain of NS3 (A3EZJ3 whole entry): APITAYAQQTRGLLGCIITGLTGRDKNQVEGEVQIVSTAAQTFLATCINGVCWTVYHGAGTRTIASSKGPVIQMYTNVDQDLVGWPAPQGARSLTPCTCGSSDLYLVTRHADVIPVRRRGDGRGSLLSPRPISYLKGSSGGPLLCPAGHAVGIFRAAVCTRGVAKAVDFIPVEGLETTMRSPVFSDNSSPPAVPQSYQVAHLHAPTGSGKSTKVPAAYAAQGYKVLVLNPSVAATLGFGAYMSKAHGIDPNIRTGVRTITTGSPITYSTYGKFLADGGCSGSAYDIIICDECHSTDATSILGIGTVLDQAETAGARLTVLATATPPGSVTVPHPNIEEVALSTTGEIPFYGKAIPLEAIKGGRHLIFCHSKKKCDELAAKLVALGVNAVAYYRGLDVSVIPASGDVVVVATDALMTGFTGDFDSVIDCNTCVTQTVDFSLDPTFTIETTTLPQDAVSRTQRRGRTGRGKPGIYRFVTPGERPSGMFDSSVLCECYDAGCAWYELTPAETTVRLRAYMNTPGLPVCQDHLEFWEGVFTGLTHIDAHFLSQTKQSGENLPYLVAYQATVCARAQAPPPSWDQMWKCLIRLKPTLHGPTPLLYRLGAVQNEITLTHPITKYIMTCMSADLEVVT

[20] = Late-stage probe development counterscreen for inhibitors of the Hepatitis C Virus non-structural protein 3 helicase (NS3): luminescence-based cell-based dose response assay to determine whether compounds that inhibit replication of HCV RNA replicon are cytotoxic. [Related pubchem assays (depositor defined):AID1800, AID1830, AID1845, AID1943, AID1945, AID2172, AID2173, AID2474, AID2476]; type: functional
[21] = target: Delta-type opioid receptor (Homo sapiens, UniProt P41143); experiment: Counterscreen for agonists of heterodimerization of the mu 1 (OPRM1) and delta 1 (OPRD1) opioid receptors: Luminescence-based cell-based high throughput dose response assay to identify agonists of OPRD1 homodimerization. [Related pubchem assays (depositor defined):AID504326, AID504355, AID504692, AID504904, AID504905]; type: functional
Chain of Delta-type opioid receptor (P41143 whole entry): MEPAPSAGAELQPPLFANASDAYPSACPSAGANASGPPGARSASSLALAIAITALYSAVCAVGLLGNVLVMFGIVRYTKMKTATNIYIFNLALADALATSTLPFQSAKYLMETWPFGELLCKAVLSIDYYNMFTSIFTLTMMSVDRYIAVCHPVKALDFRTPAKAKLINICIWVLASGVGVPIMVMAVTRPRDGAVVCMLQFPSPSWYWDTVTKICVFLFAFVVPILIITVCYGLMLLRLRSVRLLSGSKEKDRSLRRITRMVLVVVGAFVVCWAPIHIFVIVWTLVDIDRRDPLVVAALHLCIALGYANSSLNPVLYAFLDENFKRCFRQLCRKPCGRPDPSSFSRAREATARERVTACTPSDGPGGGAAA

[22] = target: Mu-type opioid receptor (Homo sapiens, UniProt P35372); experiment: Counterscreen for agonists of heterodimerization of the mu 1 (OPRM1) and delta 1 (OPRD1) opioid receptors: Luminescence-based cell-based high throughput dose response assay to identify agonists of OPRM1 homodimerization.; type: functional;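 also: U2OS cells expressing OPRM1 and beta-arrestin as split beta-galactosidase partners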
Chain of Mu-type opioid receptor (P35372 whole entry): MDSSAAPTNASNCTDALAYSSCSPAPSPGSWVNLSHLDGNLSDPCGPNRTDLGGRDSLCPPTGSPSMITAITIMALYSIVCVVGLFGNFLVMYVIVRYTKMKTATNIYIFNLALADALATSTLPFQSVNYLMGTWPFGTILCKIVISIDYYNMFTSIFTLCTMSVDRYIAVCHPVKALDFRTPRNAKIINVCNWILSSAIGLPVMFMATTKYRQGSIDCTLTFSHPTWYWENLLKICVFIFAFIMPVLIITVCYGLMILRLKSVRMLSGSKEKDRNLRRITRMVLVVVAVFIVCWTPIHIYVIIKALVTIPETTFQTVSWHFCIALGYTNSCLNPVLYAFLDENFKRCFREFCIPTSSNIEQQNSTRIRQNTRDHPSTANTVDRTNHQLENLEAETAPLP

[23] = target: 5-hydroxytryptamine receptor 5A (Homo sapiens, UniProt P47898); experiment: Counterscreen for agonists of OPRM1-OPRD1 heterodimerization: luminescence-based cell-based high throughput dose response assay to identify agonists of 5-hydroxytryptamine (serotonin) 5A receptor (HTR5A). [Related pubchem assays (depositor defined):AID504326, AID504355, AID504692, AID504904, AID504905]; type: functional
Chain of 5-hydroxytryptamine receptor 5A (P47898 whole entry): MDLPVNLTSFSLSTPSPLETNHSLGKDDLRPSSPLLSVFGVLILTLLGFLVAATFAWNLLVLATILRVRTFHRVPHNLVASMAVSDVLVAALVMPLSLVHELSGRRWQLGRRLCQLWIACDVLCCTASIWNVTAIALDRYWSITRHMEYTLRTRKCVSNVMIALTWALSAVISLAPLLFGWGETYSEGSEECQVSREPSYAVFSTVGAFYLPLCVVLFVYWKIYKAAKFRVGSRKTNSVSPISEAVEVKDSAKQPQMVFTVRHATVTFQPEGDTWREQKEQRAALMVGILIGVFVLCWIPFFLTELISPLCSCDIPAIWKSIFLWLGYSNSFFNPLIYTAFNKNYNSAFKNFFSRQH

[24] = target: T3, DNA repair protein RAD52 homolog (Homo sapiens, UniProt P43351); type: functional, biochemical
T3 sequence (P43351 whole entry): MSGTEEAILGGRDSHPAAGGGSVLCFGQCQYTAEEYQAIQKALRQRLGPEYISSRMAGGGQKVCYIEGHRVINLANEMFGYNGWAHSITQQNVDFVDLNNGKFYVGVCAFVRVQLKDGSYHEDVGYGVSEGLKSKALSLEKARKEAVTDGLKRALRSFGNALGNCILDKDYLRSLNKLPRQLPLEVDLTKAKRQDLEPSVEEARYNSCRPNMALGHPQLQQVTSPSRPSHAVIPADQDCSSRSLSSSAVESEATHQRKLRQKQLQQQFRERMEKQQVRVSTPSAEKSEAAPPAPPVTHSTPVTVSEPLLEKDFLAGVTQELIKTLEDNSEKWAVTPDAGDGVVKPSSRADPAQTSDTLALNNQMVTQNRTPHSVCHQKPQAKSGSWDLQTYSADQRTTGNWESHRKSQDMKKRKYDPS

[25] = target: Hexokinase-1 (Homo sapiens, UniProt P19367); experiment: HK1 enzyme inhibition by HKDC1 hits, SAR follow-up, selectivity assay for HKDC1 inhibitor project, biochemical, set 2, resazurin fluorescence coupled readout (AID 588356); type: functional
Chain of Hexokinase-1 (P19367 whole entry): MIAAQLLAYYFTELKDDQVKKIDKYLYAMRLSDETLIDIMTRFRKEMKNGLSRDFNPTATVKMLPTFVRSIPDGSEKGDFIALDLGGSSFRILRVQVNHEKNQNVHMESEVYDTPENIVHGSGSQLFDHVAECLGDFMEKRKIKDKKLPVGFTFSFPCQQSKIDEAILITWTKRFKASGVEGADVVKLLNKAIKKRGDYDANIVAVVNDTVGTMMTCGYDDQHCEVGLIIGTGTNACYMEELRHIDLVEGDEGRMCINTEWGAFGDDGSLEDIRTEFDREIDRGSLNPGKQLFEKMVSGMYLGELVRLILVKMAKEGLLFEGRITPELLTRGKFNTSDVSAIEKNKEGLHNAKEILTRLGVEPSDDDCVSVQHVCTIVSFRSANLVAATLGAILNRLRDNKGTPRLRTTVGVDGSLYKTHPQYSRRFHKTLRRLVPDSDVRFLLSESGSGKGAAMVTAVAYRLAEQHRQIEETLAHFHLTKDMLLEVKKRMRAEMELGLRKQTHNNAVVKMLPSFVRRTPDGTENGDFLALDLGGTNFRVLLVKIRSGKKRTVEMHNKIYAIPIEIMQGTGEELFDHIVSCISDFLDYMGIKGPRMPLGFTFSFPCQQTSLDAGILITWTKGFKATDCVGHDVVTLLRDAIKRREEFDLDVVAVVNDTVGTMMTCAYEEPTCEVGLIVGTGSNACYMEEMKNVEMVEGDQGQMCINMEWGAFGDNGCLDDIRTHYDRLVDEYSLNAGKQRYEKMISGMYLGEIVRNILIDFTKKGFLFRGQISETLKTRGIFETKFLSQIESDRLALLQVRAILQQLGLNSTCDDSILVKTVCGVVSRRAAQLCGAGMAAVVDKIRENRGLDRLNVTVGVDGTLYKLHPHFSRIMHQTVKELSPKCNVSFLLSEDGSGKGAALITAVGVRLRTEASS

[26] = target: T4, Hexokinase HKDC1 (Homo sapiens, UniProt Q2TB90); experiment: HKDC1 hexokinase inhibitors, SAR follow-up, biochemical, set 2 (AID 588355); type: functional
T4 sequence (Q2TB90 whole entry): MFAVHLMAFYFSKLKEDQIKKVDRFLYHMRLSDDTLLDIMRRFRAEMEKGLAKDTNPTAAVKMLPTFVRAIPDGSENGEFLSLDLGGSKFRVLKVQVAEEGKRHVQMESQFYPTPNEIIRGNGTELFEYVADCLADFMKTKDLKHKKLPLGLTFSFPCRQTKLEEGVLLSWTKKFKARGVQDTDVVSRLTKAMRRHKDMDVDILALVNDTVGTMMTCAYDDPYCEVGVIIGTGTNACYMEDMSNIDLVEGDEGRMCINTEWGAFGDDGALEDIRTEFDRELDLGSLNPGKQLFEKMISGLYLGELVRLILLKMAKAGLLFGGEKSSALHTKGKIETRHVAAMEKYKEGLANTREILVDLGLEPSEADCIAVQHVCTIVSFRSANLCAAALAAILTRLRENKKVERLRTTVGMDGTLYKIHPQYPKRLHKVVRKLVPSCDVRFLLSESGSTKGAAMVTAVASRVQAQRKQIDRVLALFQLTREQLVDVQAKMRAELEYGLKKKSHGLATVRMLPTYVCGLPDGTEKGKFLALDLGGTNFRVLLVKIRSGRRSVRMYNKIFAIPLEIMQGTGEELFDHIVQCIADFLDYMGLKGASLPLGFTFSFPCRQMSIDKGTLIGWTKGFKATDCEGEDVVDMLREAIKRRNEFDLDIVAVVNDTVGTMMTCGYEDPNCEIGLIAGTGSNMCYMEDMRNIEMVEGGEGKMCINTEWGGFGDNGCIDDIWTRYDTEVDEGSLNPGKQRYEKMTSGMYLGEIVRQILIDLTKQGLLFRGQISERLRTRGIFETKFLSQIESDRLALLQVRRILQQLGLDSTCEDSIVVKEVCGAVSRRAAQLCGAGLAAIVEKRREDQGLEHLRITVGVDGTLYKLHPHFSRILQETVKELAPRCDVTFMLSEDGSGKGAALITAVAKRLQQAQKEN

[27] = test system: Escherichia coli; experiment: microbe, parasite or virus in culture
[28] = cells; type: functional, cell-based
[29] = cells; type: functional, cell-based; remark: listed apart in the source
[30] = Luminescence Cell-Based Dose Retest to Confirm Inhibitors of Cancer Stem Cells. [Related pubchem assays (depositor defined):AID2717, AID2721]; type: functional; conditions: Homo sapiens
[31] = target: T5, Cysteine protease ATG4B (Homo sapiens, UniProt Q9Y4P1); type: functional;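 also: Fluorescence-based dose-response confirmation assay measuring inhibition of ATG4B activity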
T5 sequence (Q9Y4P1 whole entry): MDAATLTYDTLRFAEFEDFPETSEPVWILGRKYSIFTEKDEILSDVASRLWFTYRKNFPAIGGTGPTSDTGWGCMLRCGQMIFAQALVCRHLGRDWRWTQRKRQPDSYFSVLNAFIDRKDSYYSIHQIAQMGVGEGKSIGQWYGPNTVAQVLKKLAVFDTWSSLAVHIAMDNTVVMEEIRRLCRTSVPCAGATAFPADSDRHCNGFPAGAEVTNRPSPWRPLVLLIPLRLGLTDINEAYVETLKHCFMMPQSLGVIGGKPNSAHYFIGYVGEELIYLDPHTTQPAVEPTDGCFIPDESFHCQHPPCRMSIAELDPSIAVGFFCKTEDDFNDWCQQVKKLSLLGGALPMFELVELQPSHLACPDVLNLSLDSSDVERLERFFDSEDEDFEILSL

[32] = target: T6, Phospholipase A2 (Homo sapiens, UniProt P04054); experiment: PLA2 enzyme inhibitors, dose response, counter-screen for ATG4B inhibitor project, biochemical, set 2 (AID 588586); type: functional
T6 sequence (P04054 whole entry): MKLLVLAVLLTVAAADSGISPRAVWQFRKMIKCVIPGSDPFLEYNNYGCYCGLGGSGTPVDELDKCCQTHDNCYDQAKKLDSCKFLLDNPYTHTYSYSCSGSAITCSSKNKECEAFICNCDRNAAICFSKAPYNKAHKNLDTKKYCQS

[33] = target: T6, Phospholipase A2; type: functional
[34] = target: T5, Cysteine protease ATG4B; experiment: ATG4B protease inhibitors, dose response, biochemical, fluorescence, set 2 (AID 588584); type: functional

Structure (SMILES): COc1ccc(CCNc2ncnc3sccc23)cc1OC
- IC50 [1]: > 80 µM (inactive)
- IC50 [2]: > 80 µM (inactive)
- AC50 [3]: 0.71 µM (active)
- AC50 [4]: < 0.26 µM (active)
- AC50 [5]: 1.5 µM (active)
- IC50 [6]: 0.371 µM (active)
- EC50 [7]: > 29.9 µM (inactive)
- IC50 [8]: 1.97 µM (active)

Structure (SMILES): CCOC(=O)c1cc([N+](=O)[O-])c([N+](=O)[O-])cc1NC(C)=O
- EC50 [9]: 4.65 µM (inconclusive)
- IC50 [10]: 10.3 µM (not active)
- EC50 [11]: 2.01 µM (active)
- CC50 [12]: 13.1 µM (active)
- IC50 [13]: > 66.6 µM (inactive)
- AC50 [14]: 24.2 µM (active)
- IC50 [15]: 9.64 µM (active)
- AC50 [16]: 2.59 µM (active)
- AC50 [17]: > 35 µM (active)
- AC50 [18]: > 35 µM (active)

Structure (SMILES): CCOc1cccc(C2C(C(=O)c3ccc(C)o3)=C(O)C(=O)N2Cc2ccccc2)c1 (centres undefined)
- IC50 [19]: 4.29 µM (active)
- CC50 [20]: > 100 µM (inactive)

Structure (SMILES): CN(C)CCCN(C(=O)c1ccc(Br)s1)c1nc2cc3c(cc2s1)OCCO3
- EC50 [21]: > 92.5 µM (inactive)
- EC50 [22]: > 92.5 µM (inactive)
- EC50 [23]: > 92.5 µM (inactive)
- AC50 [24]: 21.1 µM (active)

Structure (SMILES): Cc1ccccc1N1C(=O)c2ccccc2C1Nc1ccccc1 (centres undefined)
- IC50 [25]: > 80 µM (inactive)
- IC50 [26]: > 80 µM (inactive)

Structure (SMILES): O=[N+]([O-])c1cccc(COc2cccc(CN3CCCCC3)c2)c1
- AC50 [27]: 21.2 µM (active)

Structure (SMILES): Cc1cc(/C=N/n2c(COc3ccccc3)nc3ccccc3c2=O)c(O)c([N+](=O)[O-])c1
- EC50 [28]: > 350 µM (not active)
- EC50 [29]: 31.7 µM (active)
- AC50 [30]: 20.9 µM (active)
- IC50 [31]: 17.2 µM (active)
- IC50 [32]: 10.5 µM (active)
- IC50 [33]: 13.1 µM (active)
- IC50 [34]: 22.8 µM (inactive)
